Reference: patent publication US20120071451A1, “METHOD OF TREATING NONALCOHOLIC STEATOHEPATITIS WITH ELEVATED DOSES OF URSODEOXYCHOLIC ACID” (Aptalis Pharma Canada Inc., priority 2009, published 2012)
Entries after “also recorded” stand apart in the source; their conditions may differ.

Legend:
[1] = test system: patients with histologically proven NASH; assay: Multicenter randomized double-blind placebo-controlled clinical study of 28-35 mg/kg/day UDCA for treating NASH; format: in vivo, human; settings: for Normalization ALAT: percent pts with normalized ALAT at 12 months; for Normalization ASAT: percent pts with normalized ASAT at 12 months
Method: A multicenter randomized double-blind placebo-controlled study was conducted to examine the efficacy and tolerability of 28-35 mg/kg/day UDCA in patients with histologically proven NASH, ALAT and/or ASAT greater than 50 IU/L. A total of 120 patients were planned to receive either UDCA or placebo for a period of 12 months. Treatment was administered with meals. During the study, liver biochemistry, tolerability and side effects were monitored regularly. During the study, overweight and obese patients were encouraged to lose weight by following a hypocaloric diet and to maintain a certain level of physical activity. Drug treatments taken by patients for associated medical conditions were allowed. At the end of the 12th month, patients underwent an end of study evaluation and study treatments were stopped.
Inclusion criteria: age of patients higher than 18 years; liver biopsy compatible with NASH: presence of steatosis >20% associated with hepatocyte ballooning and/or hepatic lobule necrosis during the last 18 months; ALAT or ASAT levels >50 IU/L at the screening visit (with at least 3 elevated transaminase levels in the last 12 months)
Exclusion criteria: hepatic biopsy done before the last 18 months; no more than one normal value of transaminases during the last 12 months; patient was treated by UDCA during the last 12 months; loss of weight of more than 15% between the time of the hepatic biopsy and the screening; alcohol consumption higher than 20 g/day for women or higher than 30 g/day for men; presence of other causes of hepatitis such as chronic hepatitis B or C, increased serum ferritin associated with homozygosity for the C282Y mutation, primary biliary cirrhosis, primary sclerosing cholangitis, well documented autoimmune hepatitis (specific autoantibody, hpergammaglobulinaemia, histology-compatible), alpha-1 anti-trypsin deficiency, Wilson's disease, HIV infection; secondary causes of NASH: long term amiodarone-induced NASH, corticotherapy, obesity surgery within the last 2 years, Tamoxifen® treatment; Child's B or Child's C grade cirrhosis; presence of liver carcinoma; currently treated or treated during the past three years of hepatic biopsy with rosilitazone or pioglitazone; treatment with vitamin E during the past six months before screening; pregnant or breastfeeding women; unavailable histology slides for reading by the central laboratory.
Discontinuation criteria: Subjects were free to discontinue the study at any time for any or for no reason, and without prejudice to further treatment. Patients who withdrew subsequent to the pre-study evaluations but before receiving any study medication were not considered dropouts and were not included in the database. Patients who were included in the study and received at least one dose of study medication were included in the database and considered part of the safety population. Patients who were included in the study and received a dose of study medication and for whom at least one post-baseline evaluation was available were analyzed as part of the Intent-to-Treat (ITT) population. Patients from the ITT population who completed the study without any major protocol violations were analyzed as part of the Per Protocol (PP) population.
Main Endpoints: The primary endpoint was percent change in ALAT at 12 months vs. baseline. The secondary endpoints included: percent change in ASAT at 12 months vs. baseline; percent change Gamma-GT at 12 months vs. baseline; percent pts with normalized ALAT at 12 months; percent pts with normalized ASAT at 12 months; change in fibrosis index (FibroTest); change in inflammation index (Actitest); change in metabolic syndrome markers; and safety.
FibroTest is a non-invasive blood test that provides a quantitative estimate of liver fibrosis and can be used to predict advanced fibrosis. ActiTest is a non-invasive blood test that is used to assess the activity of liver disease by measuring the degree of necrosis and inflammation. […]

NASH patients = settings: one year, 13-15 mg/kg/day; cited from earlier work
patients with NASH [2] = settings: two years, 13-15 mg/kg/day; cited from earlier work
patients with NASH [3] = settings: 15 mg/kg/day; cited from earlier work
[4] = cited from earlier work
adult patients with PSC = settings: cited from earlier work
[5] = 28-35 mg/kg/day UDCA in NASH patients
[6] = mean change at 12 months vs. baseline, ITT, 30 mg/kg/day
[7] = by the end of the study, n=76, 28-30 mg/kg/day

C[C@H](CCC(=O)O)[C@H]1CC[C@H]2[C@@H]3[C@@H](O)C[C@@H]4C[C@H](O)CC[C@]4(C)[C@H]3CC[C@]12C [UDCA, 3α, 7β-dihydroxy-5β-cholan-24-oic acid]
Asthenia and RUQP [1, 5]: symptomatic improvement | Safety [1, 5]: without any significant safety concerns | ActiTest (effect on liver inflammation) change vs. baseline, Mean ([1]; ITT, at 6 months): −31.41% | FibroTest (effect on fibrosis) change vs. baseline, Mean ([1]; ITT, at 6 months): −9.15% | ActiTest (effect on liver inflammation) change vs. baseline, Mean ([1]; ITT, at 12 months): −30.97% | FibroTest (effect on fibrosis) change vs. baseline, Mean ([1]; ITT, at 12 months): −8.11% | ActiTest (effect on liver inflammation) change vs. baseline, Mean ([1]; PP, at 6 months): −31.23% | FibroTest (effect on fibrosis) change vs. baseline, Mean ([1]; PP, at 6 months): −9.68% | ActiTest (effect on liver inflammation) change vs. baseline, Mean ([1]; PP, at 12 months): −27.33% | FibroTest (effect on fibrosis) change vs. baseline, Mean ([1]; PP, at 12 months): −5.40% | GI symptoms (diarrhea, abdominal pain, motility problems) frequency versus placebo group ([1]; UDCA treatment group vs placebo group): −3 × | Glycemia ([1]; UDCA treatment group, increased in placebo group (p=0.023)): remained stable | HbA1c versus placebo ([1]; at 6 and 12 months (p<0.05)): lower | Insulinemia versus placebo ([1]; at 12 months (p=0.038)): lower | Fibrosis levels compared to placebo group ([1]; both ITT and PP populations): significant improvement | Liver inflammation levels compared to placebo group ([1]; both ITT and PP populations): significant improvement | Mild diarrhea, abdominal pain, and gastrointestinal motility disorders versus placebo group ([1]; human, in vivo): more | Time of maximum effect, percent change from baseline ALAT ([1]; human, in vivo): 3 months | Time of maximum effect, percent change from baseline ASAT ([1]; human, in vivo): 3 months | Time of maximum effect, percent change from baseline in Gamma-GT ([1]; human, in vivo): 6 months | Δ % ALAT (SD) [1, 6]: −28±55% | Δ % ASAT (SD) [1, 6]: −8±59% | Δ % Gamma-GT (SD) [1, 6]: −51±28% | Individual effect on fibrosis: Fibrosis Decreased ([1]; percent of patients): 35.7% | Individual effect on fibrosis: Fibrosis Increased ([1]; percent of patients): 8.9% | Individual effect on fibrosis: Fibrosis Stable ([1]; percent of patients): 55.4% | Normalization ALAT ([1]; ITT): 25% | Normalization ALAT ([1]; PPP): 29% | Normalization ASAT ([1]; ITT): 32% | Normalization ASAT ([1]; PPP): 36% | Fibrosis or inflammation (NASH patients): did not change | Liver enzyme and steatosis levels (NASH patients): improved | Efficacy, UDCA treatment group versus placebo group (patients with NASH [2]): did not show any differences | ALAT and Gamma-GT levels (patients with NASH [3]): significant reduction | Steatosis, necroinflammation, or fibrosis (patients with NASH [3]): no improvements | Solubility in chloroform ([4]; chloroform): slightly soluble | Solubility in ethanol ([4]; ethanol): freely soluble | Solubility in ether ([4]; ether): sparingly soluble | Solubility in glacial acetic acid ([4]; glacial acetic acid): freely soluble | Solubility in intestinal fluids ([4]; intestinal fluids, compared with water): more soluble | Solubility in water ([4]; water): virtually insoluble; also recorded: practically insoluble | Risk of a primary endpoint versus placebo (adult patients with PSC; adjusted for baseline stratification characteristics (p=0.011)): 2.2 times | Patients who had reached one of the pre-established clinical endpoints (number) (adult patients with PSC; [7]): 28 patients | Patients who had reached one of the pre-established clinical endpoints (percent) (adult patients with PSC; [7]): 37% | Amount of decrease of ASAT and AP levels versus placebo (adult patients with PSC; during therapy (p<0.01)): greater | Adjusted relative risk for death or transplantation (adult patients with PSC; versus placebo (p=0.029)): 3.3 | Serious adverse events (adult patients with PSC; vs. 43% placebo, p=0.03): 61%
